Tested on: T-type calcium channels in the thalamocortical circuit
Test: Phase 1 sleep EEG in healthy volunteers (NREM sigma)
Format: in vivo, human
Settings: FIG. 12
Method: This was a 2-part, Phase 1 double blind, placebo controlled trial to assess the safety, tolerability, PK, and PD (including the KSS, the KDT, the SQSQ and 24-hour EEG recordings), of single, ascending (Part A: 20, 40, and 60 mg)) and multiple, ascending (Part B: 20 and 40 mg for 8 days) doses of the 20 mg tablet (formulation 3) in healthy participants. […] Variability in Cmax and AUC increased with increasing dose following a single oral dose of the 20 mg tablet formulation (formulation 3).
The T-type calcium channels expressed in the thalamus are critically involved in the generation and modulation of sleep spindles which are prominent thalamocortical oscillations during NREM sleep. Sleep spindles are detected in the EEG as the sigma frequency band (11-15 Hz) (FIG. 12).

CC(C)(C)NC(=O)CN1CCC(CNC(=O)c2cc(F)cc(Cl)c2)CC1 [the compound of formula (I)]
power in the sigma frequency band (11-15 Hz), NREM sleep EEG: decrease of power in the sigma frequency band

From patent US12528772B2, “Formulations of T-type calcium channel modulators and methods of use thereof” (Praxis Precision Medicines, Inc., priority 2019, dated 2026)
